Data as given in patent US10787423B2, “Piperazine and piperidine derivatives, their synthesis and use thereof in inhibiting VDAC oligomerization, apoptosis and mitochondria dysfunction” (THE NATIONAL INSTITUTE FOR BIOTECHNOLOGY IN THE NEGEV LTD., priority 2015, dated 2020).

Target: T1, rVDAC1-GFP2 / rVDAC1-Rluc in T-REx-293 cells (Rattus norvegicus, UniProt Q9Z2L0)
T1 construct: The rVDAC1 gene was cloned into BamHI and HindIII sites of the BRET2 plasmids (N2 variants); expressed in transfected cells; host or cells: T-REx-293 cells stably expressing hVDAC1-shRNA (T-REx-pS10)
T1 sequence (Q9Z2L0 with tags, fused parts or gaps limits assumed): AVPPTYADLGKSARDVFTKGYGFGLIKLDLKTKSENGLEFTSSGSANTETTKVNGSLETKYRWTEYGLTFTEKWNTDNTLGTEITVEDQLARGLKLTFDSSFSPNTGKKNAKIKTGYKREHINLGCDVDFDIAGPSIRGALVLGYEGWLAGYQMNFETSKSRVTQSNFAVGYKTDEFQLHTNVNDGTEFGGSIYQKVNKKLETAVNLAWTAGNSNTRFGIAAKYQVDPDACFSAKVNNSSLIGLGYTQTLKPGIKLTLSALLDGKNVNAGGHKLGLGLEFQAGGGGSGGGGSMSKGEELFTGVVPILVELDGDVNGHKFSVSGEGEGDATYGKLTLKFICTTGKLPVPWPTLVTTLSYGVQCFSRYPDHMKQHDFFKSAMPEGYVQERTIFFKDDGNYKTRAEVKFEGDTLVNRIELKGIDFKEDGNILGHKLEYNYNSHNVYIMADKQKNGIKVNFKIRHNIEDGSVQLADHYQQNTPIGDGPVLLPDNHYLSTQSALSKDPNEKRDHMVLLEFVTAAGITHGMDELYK
Test: BRET2 assay of VDAC1 oligomerization induced by apoptosis inducers (Method A)
Format: cell-based
Details: test compound 10 μM, 1 h pre-incubation; for BRET2, % of inhibition, As2O3: As2O3 60 μM (3 h); for BRET2, % of inhibition, STS: STS 1 μM (3 h); for BRET2, % of inhibition, Selenite: selenite 30 μM (3 h)
Description: BRET2 screening may be carried out as described in the art ([…] et al., (2010) Oligomerization of the mitochondrial protein voltage-dependent anion channel is coupled to the induction of apoptosis. Mol Cell Biol 30, 5698-5709). Plasmids encoding the fusion proteins rat(r)VDAC1-GFP2 and rVDAC1-luc were constructed using the BRET2 plasmids (Perkin Elmer, Waltham, Mass.). The rVDAC1 gene was cloned into BamHI and HindIII sites of the BRET2 plasmids (N2 variants) and amplified using the forward primer [NT] and the reverse primer [NT]. […] The cells were transfected using calcium phosphate method. Transfections were carried out with 0.2 μg of a plasmid coding for rVDAC1-Rluc and with 0.8 μg of a plasmid coding for rVDAC1-GFP2. As a negative control, cells were transfected with plasmids encoding for rVDAC1-Rluc (0.2 μg DNA) and GFP2 (0.8 μg). In another control (control cells), cells were also transfected with a plasmid encoding for rVDAC1-luc (0.2 μg) and plasmid pcDNA4/TO (0.8 μg). The BRET2 signal represents the ratio of the GFP2 fluorescence, measured at its emission wavelength (510 nm), over the light intensity (luminescence) emitted at 395 nm. All measurements were performed using the Infinite 200 ELISA reader (Tecan). BRET2 signals were defined as GFP2/Rluc intensity ratio and calculated as follows: DNA encoding fusion proteins rVDAC1-Rluc (in which RLuc was connected to rVDAC1 at the C terminal position through a linker (GGGS)) and rVDAC1-GFP2 (in which the GFP2 was fused to the rVDAC1 C terminus) was cloned into BRET2 vectors. rVDAC1-GFP2 and rVDAC1-Rluc were expressed in T-REx-293 cells stably expressing shRNA-hVDAC1 and a low level of endogenous hVDAC1 (referred to as T-REx-pS10 cells) hVDAC1-shRNA, being specific to human VDAC1, allowed the expression of rVDAC1 and decreased the participation of endogenous hVDAC1 in oligomerization, thereby enhancing the BRET2 signal. rVDAC1-GFP2 and rVDAC1-Rluc expression levels were correlated with the amount of plasmids used. […] Following incubation, cells were harvested using trypsin, washed twice with PBS by centrifugation at 1000×g, 5 min, resuspended in 200 μl of PBS and divided between two wells of a 96-well clear-bottom plate (Grenier). […] The screening was conducted using BRET2 assay as described above. […] After treatment, the medium was removed and assayed for BRET2 signals as described above. Liquid handling was done with the Tecan (Männedorf, Switzerland) Freedom 150 Robotic & MCA Liquid Handling System, while luciferase luminescence and fluorescence readings were obtained a robot-integrated Tecan Infinite M1000 reader. Method A was used for screening of VDAC1 oligomerization inhibitors. […] Table 2 provides a summary of BRET2-based screen results of the anti-VDAC1 oligomerization activity of compounds from the NCI library. Results are presented as percent inhibition of the BRET2 signal induced by the indicated pro-apoptotic agent.

Structure (SMILES) | BRET2, % of inhibition, As2O3 | BRET2, % of inhibition, STS | BRET2, % of inhibition, Selenite
O=C(Nc1ccc(Br)c2ccccc12)c1ccc2ccccc2c1O [NSC 601359] | 97.7% | 46% | 74.4%
COc1ccc(/C=C2/CCOC2=O)cc1 [NSC 10428] | 96.4% | 38.2% | 75.7%
C=CCNC(=O)c1ccc(OC)cc1 [NSC 404057] | 74.6% | 0% | 37.1%
CC1=CC(=O)C(C(C)=Nc2ccccc2Cl)C(=O)O1 (stereo not drawn) [NSC 32892] | 55.4% | 0% | 16.4%
O=[N+]([O-])c1ccc(-c2ncc(-c3ccc(Br)cc3)o2)cc1 [NSC 372767] | 77.3% | 0% | 26.6%
CC(=O)N1C=Cc2c(c(C)c3c([nH]c4ccccc43)c2C)C1 [NSC 657149] | 88.3% | 0% | 25.3%
O=P(O)(O)c1cc(-c2ccccc2)oc1-c1ccccc1 [NSC 43344] | 80.7% | 23.8% | 50.1%
CN1CCN(C(=O)Nc2ccc([N+](=O)[O-])cc2)CC1 [NSC 36815] | 67.7% | 34.5% | 50%
Clc1ccc(-c2nc(-c3cc4cc(Cl)ccc4o3)cs2)cc1 [NSC 321502] | 67.3% | 22.4% | 46.5%
CCCOc1nc2c(c(=O)n(C)c(=O)n2C)n1C [NSC 8816] | 49.6% | 0% | 20.1%
CC(C)OC(=O)Nc1ccc(-c2ccc(NC(=O)OC(C)C)cc2Cl)c(Cl)c1 [NSC 43678] | 95.1% | 34.6% | 78.3%
O=C(O)c1cccc2c1C(=O)c1cccc3snc-2c13 [NSC 39938] | 48.7% | 0% | 18.8%
CCOc1ccc(Nc2c3ccccc3nc3ccccc23)cc1 [NSC 30205] | 62.7% | 0% | 0%
Nc1cc2c3c(cccc3c1)C(=O)N(CCN1CCCC1)C2=O [NSC 308849] | 99.5% | 0% | 0%
Oc1ccc(Cc2ccc(Cl)cc2)c(O)c1 [NSC 11150] | 95.2% | 11.6% | 67%
Nc1ccc(C(=O)Oc2ccc([N+](=O)[O-])cc2)cc1 [NSC 163802] | 65.8% | 0% | 1.2%
CCN1CCc2ccccc2C1 [NSC 28837] | 85.2% | 0.3% | 48.3%
CN(C)c1ccc(N=Nc2cccc3ccoc23)cc1 [NSC 680515] | 87.8% | 33.4% | 66.3%
CN1[C@@H]2CC[C@H]1CC(OC(c1ccccc1)c1ccccc1)C2.CS(=O)(=O)O (stereo partly drawn) [NSC 42199] | 97% | 31% | 78.7%
COC(=NC(C)C)NC(C)C [NSC 672441] | 69.6% | 0% | 41.8%
O=C(/C=C/c1ccccc1Cl)c1ccc(O)cc1 [NSC 13151] | 67% | 0% | 0%

Structure (SMILES) | BRET2, % of inhibition, As2O3 | BRET2, % of inhibition, STS | BRET2, % of inhibition, Selenite
O=C(Nc1ccc(C2=NCCN2)cc1)c1ccc(Cl)c(C(=O)Nc2ccc(C3=NCCN3)cc2)c1 [NSC 67436] | 78.1% | 14.8% | 65.7%
Nc1ccc(C(=O)Nc2cccc(N)c2)cc1 [NSC 15362] | 98% | 39.7% | 41%
CCOc1cccc(/C=C2\NC(=S)N(c3ccccc3)C2=O)c1O [NSC 343966] | 39.4% | 0% | 20.1%
Nc1nc(N)c(C=Nc2ccc(Br)cc2)c(Nc2ccc(Br)cc2)n1 [NSC 103520] | 82.5% | 22.7% | 74%
CCOC(=O)Nc1ccc(C(=O)/C=C/c2ccccc2)cc1 [NSC 31703] | 56.7% | 16.6% | 33.3%
O=C(c1cccnc1)c1cc(-c2ccccn2)c(=O)n2ccccc12 [NSC 324623] | 78% | 0% | 16.3%
Clc1ccc(/C=C/c2nc(Cl)c(-c3ccc(Cl)cc3)c(Cl)n2)cc1 [NSC 154389] | 90.6% | 45.9% | 90.6%
O=c1c(-c2ccc(O)cc2)coc2cc(O)cc(O)c12 [NSC 36586] | 49% | 0% | 0%
CCOC(=O)c1[nH]c(CO)c(C(=O)OCC)c1C [NSC 10768] | 52% | 0% | 9.6%
c1ccc2c(c1)[nH]c1c3ccccc3sc21 [NSC 605333] | 63.7% | 0% | 16%
CCCCC(=O)N1CCCC(C)C1 (stereo not drawn) [NSC 191029] | 86.5% | 0% | 36.4%
Nc1ccc(NC(=O)Nc2ccc(N)cc2)cc1 [NSC 15364] | 85.4% | 40.9% | 75.9%
CCN(CC)Cc1cc2[nH]c3c4ccc(Cl)cc4ncc3c2cc1OC [NSC 317605] | 46% | 0.3% | 52%
O=C(/C=C/c1ccccc1)NC(=S)Nc1ncccn1 [NSC 205968] | 58.5% | 0% | 0%
O=C(Oc1ccc(NC(=O)c2cc3c(cc2Br)OCO3)cc1)c1ccccc1 [NSC 268487] | 86.7% | 0% | 69.4%
CC(C)NC(=O)c1ccc(C(C)C)cc1 [NSC 20045] | 88% | 0% | 77.4%
NC(=O)c1ccc(Oc2ccc(C(N)=O)cc2)cc1 [NSC 39047] | 70.2% | 39.1% | 54%
O=C(Nc1ccc(Cl)c(Cl)c1)Nc1ccccc1O [NSC 522131] | 86.8% | 0% | 47.6%
O=[N+]([O-])c1cccc(/C=C/c2ccccn2)c1 [NSC 19637] | 76.2% | 0% | 61.8%
CN(C)c1cccc(/C=C(\C#N)c2ccccc2)c1 [NSC 667251] | 77.5% | 1.4% | 0%
COC(=O)C1(C)Cc2cc(OC(C)=O)c(OC(C)=O)cc2N1 (stereo not drawn) [NSC 341956] | 51.5% | 0% | 24%
